Structures can show the parent of a compound that is named as a salt.
Row | melting point | Compound
1 | 85.8 °C | CN(c1nnc(C(F)(F)F)s1)C1CCN(Cc2ccc(F)cc2)CC1
2 | 130.2 °C | Fc1cc(CN2CCC(Nc3nnc(C(F)(F)F)s3)CC2)ccc1C(F)(F)F
3 | 116.3 °C | FC(F)(F)Oc1cccc(CN2CCC(Nc3nnc(C(F)(F)F)s3)CC2)c1
4 | 199.4 °C | N#Cc1nnc(NC2CCN(Cc3ccc(F)c(F)c3)CC2)s1
5 | 80.5 °C | CN(c1nnc(C(F)(F)F)s1)C1CCN(Cc2cccc(F)c2)CC1
6 | 211.3 °C | N#Cc1nnc(NC2CCN(Cc3cc(F)c(F)c(F)c3)CC2)s1
7 | 238 °C | Fc1ccc(CN2CCC(Nc3nc(C(F)(F)F)cs3)CC2)cc1F (as salt: hydrochloride)
